Key:
HBV = experiment: Determination of HBV DNA from the supernatants of HepAD38 cells (anti-HBV activity); type: cell-based, hepatitis B virus; settings: Hepatitis B virus, HePAD38, 144 h, HBV DNA in HepAD38 supernatant, day 6, qPCR; read-out: Cell Activity
Method in brief: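 EC50 derived by non-linear regression of relative HBV DNA copy numbers, measured by qPCR (plasmid standards) in day-6 filtered supernatants. Before this, HepAD38 cells were exposed to serial half-log compound dilutions without tetracycline, releasing viral expression; cultures kept at 37 °C, 5% CO2.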

[1] = molecular target: HBV core protein (C-terminal truncated core protein containing 149 amino acids of the N-terminal assembly domain) (UniProt P03146); experiment: Biochemical capsid assembly assay (fluorescence quenching); design: rows headed: Assembly Activity; other: BODIPY-FL labelled core protein, assembly started with NaCl, read after 6 min; settings: read-out: Assembly Activity; BODIPY-FL labelled core protein, assembly started with NaCl, read after 6 min
Chain of HBV core protein (C-terminal truncated core protein containing 149 amino acids of the N-terminal assembly domain) (P03146 whole entry, the tested form may be a part): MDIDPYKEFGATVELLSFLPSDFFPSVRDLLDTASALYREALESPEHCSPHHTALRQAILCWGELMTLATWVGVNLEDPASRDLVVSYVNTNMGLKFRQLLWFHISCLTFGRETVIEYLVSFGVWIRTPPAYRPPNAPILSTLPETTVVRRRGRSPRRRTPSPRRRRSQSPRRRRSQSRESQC
Method in brief: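 N-terminal assembly domain (residues 1–149) plus C-terminal Cys150, E. coli-expressed, BODIPY-FL-maleimide labelled, used at 1.0–2.0 μM in 50 mM HEPES pH 7.5 with 0.5% DMSO. Assembly started with NaCl ([…]); fluorescence quenching (ex 477/em 525 nm) read after 6 min. 8-point compound series; EC50 by non-linear regression.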

[2] = Cell viability assay (AlamarBlue); settings: human, HepAD38 cells
Protocol: Using the AlamarBlue viability assay cytotoxicity was evaluated in HepAD38 cells in the presence of 0.3 μg/ml tetracycline, which blocks the expression of the HBV genome. Assay condition and plate layout were in analogy to the anti-HBV assay, however other controls were used. On each assay plate six wells containing untreated HepAD38 cells were used as the 100% viability control, and six wells filled with assay medium only were used as 0% viability control. In addition, a geometric concentration series of cycloheximide starting at 60 μM final assay concentration was used as positive control in each experiment. After six days incubation period Alamar Blue Presto cell viability reagent (ThermoFisher, Dreieich) was added in 1/11 dilution to each well of the assay plate. After an incubation for 30 to 45 min at 37° C. the fluorescence signal, which is proportional to the number of living cells, was read using a Tecan Spectrafluor Plus plate reader with an excitation filter 550 nm and emission filter 595 nm, respectively. Data were normalized into percentages of the untreated control (100% viability) and assay medium (0% viability) before CC50 values were calculated using non-linear regression and the GraphPad Prism 6.0 (GraphPad Software, La Jolla, USA). Mean EC50 and CC50 values were used to calculate the selectivity index (SI=CC50/EC50) for each test compound.

Q: What does the source list for CN(C(=O)c1cnn2c1CN(C(=O)c1cc3ccccc3[nH]1)CC2)C1(c2ccc(CO)cc2)CC1 [Example 91, N-{1-[4-(hydroxymethyl)phenyl]cyclopropyl}-5-(1H-indole-2-carbonyl)-N-methyl-4H,5H,6H,7H-pyrazolo[1,5-a]pyrazine-3-carboxamide]?
A: EC50 (HBV): < 1 µM; IC50 [1]: < 5 µM; CC50 at 6 days [2]: > 10 µM

Q: What does the source list for O=C(NC1(COC(F)F)CC1)c1cnn2c1CN(C(=O)c1cc3cc(F)c(Cl)cc3[nH]1)CC2 [Example 92, 5-(6-chloro-5-fluoro-1H-indole-2-carbonyl)-N-{1-[(difluoromethoxy)methyl]cyclopropyl}-4H,5H,6H,7H-pyrazolo[1,5-a]pyrazine-3-carboxamide]?
A: EC50 (HBV): < 1 µM; IC50 [1]: < 5 µM; CC50 at 6 days [2]: > 10 µM

Q: With CC1Cn2ncc(C(=O)NC3(COC(F)F)CC3)c2CN1C(=O)c1cc2cc(F)c(Cl)cc2[nH]1 (stereo not drawn) [Example 93, 5-(6-chloro-5-fluoro-1H-indole-2-carbonyl)-N-{1-[(difluoromethoxy)methyl]cyclopropyl}-6-methyl-4H,5H,6H,7H-pyrazolo[1,5-a]pyrazine-3-carboxamide] as the molecule, how does the EC50 (HBV) read?
A: < 1 µM

Q: What about the IC50 [1] of the same molecule?
A: < 5 µM

Q: And the CC50 at 6 days [2]?
A: > 10 µM

Q: Which EC50 (HBV) does the source give for CC1Cn2ncc(C(=O)NC3(COC(F)F)CC3)c2CN1C(=O)c1cc2cc(F)c(F)cc2[nH]1 (stereo not drawn) [Example 94, 5-(5,6-difluoro-1H-indole-2-carbonyl)-N-{1-[(difluoromethoxy)methyl]cyclopropyl}-6-methyl-4H,5H,6H,7H-pyrazolo[1,5-a]pyrazine-3-carboxamide] here?
A: < 1 µM

Q: And the IC50 [1]?
A: < 5 µM

Q: What about the CC50 at 6 days [2] of the same molecule?
A: > 10 µM

Q: Which EC50 (HBV) does the source give for CCc1cccc2[nH]c(C(=O)N3CCn4ncc(C(=O)N(C)C5(CO)CC5)c4C3)cc12 [Example 95, 5-(4-ethyl-1H-indole-2-carbonyl)-N-[1-(hydroxymethyl)cyclopropyl]-N-methyl-4H,5H,6H,7H-pyrazolo[1,5-a]pyrazine-3-carboxamide] here?
A: < 1 µM

Q: What about the IC50 [1] of the same molecule?
A: < 5 µM

Q: What about the CC50 at 6 days [2] of the same molecule?
A: > 10 µM

Q: Which EC50 (HBV) does the source give for CN(C(=O)c1cnn2c1CN(C(=O)c1cc3c(Cl)c(F)ccc3[nH]1)CC2)C1(CO)CC1 [Example 96, 5-(4-chloro-5-fluoro-1H-indole-2-carbonyl)-N-[1-(hydroxymethyl)cyclopropyl]-N-methyl-4H,5H,6H,7H-pyrazolo[1,5-a]pyrazine-3-carboxamide] here?
A: < 1 µM

Q: What about the IC50 [1] of the same molecule?
A: < 5 µM

Q: What about the CC50 at 6 days [2] of the same molecule?
A: > 10 µM

Q: With O=C(NC1(COC(F)F)CC1)c1cnn2c1CN(C(=O)c1cc3ccccc3[nH]1)CC2 [Example 97, N-{1-[(difluoromethoxy)methyl]cyclopropyl}-5-(1H-indole-2-carbonyl)-4H,5H,6H,7H-pyrazolo[1,5-a]pyrazine-3-carboxamide] as the molecule, how does the EC50 (HBV) read?
A: < 1 µM

Q: And the IC50 [1]?
A: < 5 µM

Q: And the CC50 at 6 days [2]?
A: > 10 µM

Q: Which results are given for O=C(NC1(c2ccncc2)CC1)c1cnn2c1CN(C(=O)c1cc3ccccc3[nH]1)CC2 [Example 98, 5-(1H-indole-2-carbonyl)-N-[1-(pyridin-4-yl)cyclopropyl]-4H,5H,6H,7H-pyrazolo[1,5-a]pyrazine-3-carboxamide]?
A: EC50 (HBV): < 1 µM; IC50 [1]: < 5 µM; CC50 at 6 days [2]: > 10 µM

Q: For CNC(=O)c1cnn2c1CN(C(=O)c1cc3ccccc3[nH]1)CC2 [Example 100, 5-(1H-indole-2-carbonyl)-N-methyl-4H,5H,6H,7H-pyrazolo[1,5-a]pyrazine-3-carboxamide], which EC50 (HBV) is on record?
A: < 100 µM

Q: And the IC50 [1]?
A: 5 to 10 µM

Q: And the CC50 at 6 days [2]?
A: > 10 µM

Q: With O=C(NC1(C(F)(F)F)CC1)c1cnn2c1CN(C(=O)c1cc3ccccc3[nH]1)CC2 [Example 101, 5-(1H-indole-2-carbonyl)-N-[1-(trifluoromethyl)cyclopropyl]-4H,5H,6H,7H-pyrazolo[1,5-a]pyrazine-3-carboxamide] as the molecule, how does the EC50 (HBV) read?
A: < 1 µM

Q: And the IC50 [1]?
A: < 5 µM

Q: What about the CC50 at 6 days [2] of the same molecule?
A: > 10 µM

Q: What does the source list for Cc1cc(F)cc2[nH]c(C(=O)N3CCn4ncc(C(=O)NC5(COC(F)F)CC5)c4C3)cc12 [Example 102, N-{1-[(difluoromethoxy)methyl]cyclopropyl}-5-(6-fluoro-4-methyl-1H-indole-2-carbonyl)-4H,5H,6H,7H-pyrazolo[1,5-a]pyrazine-3-carboxamide]?
A: EC50 (HBV): < 1 µM; IC50 [1]: < 5 µM; CC50 at 6 days [2]: > 10 µM
